# Results taken from ChEMBL document CHEMBL1201862, “PubChem BioAssay data set” (2004).
# Activity calls are given as the source filed them.
# How the values were obtained:
# [1] = biological target: T1, Alkaline phosphatase, tissue-nonspecific isozyme (Homo sapiens, UniProt P05186); test: human TNAP enzyme inhibitors, SAR follow-up, biochemical, luminescent, dose response (AID 1056)
# T1 sequence (P05186 whole entry): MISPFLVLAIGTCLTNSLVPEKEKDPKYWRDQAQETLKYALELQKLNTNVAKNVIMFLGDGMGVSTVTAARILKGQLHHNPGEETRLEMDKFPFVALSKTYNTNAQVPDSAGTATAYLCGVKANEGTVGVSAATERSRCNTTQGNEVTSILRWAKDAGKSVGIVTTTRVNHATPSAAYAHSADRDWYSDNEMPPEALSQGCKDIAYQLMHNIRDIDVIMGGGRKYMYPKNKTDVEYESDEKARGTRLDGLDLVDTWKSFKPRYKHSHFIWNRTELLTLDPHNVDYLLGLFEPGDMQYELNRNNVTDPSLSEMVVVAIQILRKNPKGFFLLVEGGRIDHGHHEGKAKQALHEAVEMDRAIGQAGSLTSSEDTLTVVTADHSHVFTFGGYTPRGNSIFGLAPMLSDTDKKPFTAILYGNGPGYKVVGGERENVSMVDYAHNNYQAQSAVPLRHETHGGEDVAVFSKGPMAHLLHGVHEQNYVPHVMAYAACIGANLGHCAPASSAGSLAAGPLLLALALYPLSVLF
# [2] = biological target: Glyceraldehyde-3-phosphate dehydrogenase (Homo sapiens, UniProt P04406)
# Sequence of Glyceraldehyde-3-phosphate dehydrogenase (P04406 whole entry): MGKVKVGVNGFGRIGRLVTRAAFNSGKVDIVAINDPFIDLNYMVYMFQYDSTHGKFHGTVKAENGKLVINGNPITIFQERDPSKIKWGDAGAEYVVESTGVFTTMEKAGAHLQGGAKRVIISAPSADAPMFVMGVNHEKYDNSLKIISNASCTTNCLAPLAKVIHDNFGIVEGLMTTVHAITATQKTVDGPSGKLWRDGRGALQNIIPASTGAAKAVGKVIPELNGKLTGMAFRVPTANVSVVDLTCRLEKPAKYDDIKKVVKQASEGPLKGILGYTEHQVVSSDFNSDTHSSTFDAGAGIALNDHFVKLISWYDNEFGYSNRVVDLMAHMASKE
# [3] = biological target: T2, Aminopeptidase N (Plasmodium falciparum FcB1/Columbia, UniProt O96935); test: P. falciparum M1AAP inhibitors, biochemical, fluorogenic H-Leu-NHMec substrate, 1536-well (AID 1445); parameters: species or system Plasmodium falciparum 3D7, 3D7
# T2 sequence (O96935 whole entry): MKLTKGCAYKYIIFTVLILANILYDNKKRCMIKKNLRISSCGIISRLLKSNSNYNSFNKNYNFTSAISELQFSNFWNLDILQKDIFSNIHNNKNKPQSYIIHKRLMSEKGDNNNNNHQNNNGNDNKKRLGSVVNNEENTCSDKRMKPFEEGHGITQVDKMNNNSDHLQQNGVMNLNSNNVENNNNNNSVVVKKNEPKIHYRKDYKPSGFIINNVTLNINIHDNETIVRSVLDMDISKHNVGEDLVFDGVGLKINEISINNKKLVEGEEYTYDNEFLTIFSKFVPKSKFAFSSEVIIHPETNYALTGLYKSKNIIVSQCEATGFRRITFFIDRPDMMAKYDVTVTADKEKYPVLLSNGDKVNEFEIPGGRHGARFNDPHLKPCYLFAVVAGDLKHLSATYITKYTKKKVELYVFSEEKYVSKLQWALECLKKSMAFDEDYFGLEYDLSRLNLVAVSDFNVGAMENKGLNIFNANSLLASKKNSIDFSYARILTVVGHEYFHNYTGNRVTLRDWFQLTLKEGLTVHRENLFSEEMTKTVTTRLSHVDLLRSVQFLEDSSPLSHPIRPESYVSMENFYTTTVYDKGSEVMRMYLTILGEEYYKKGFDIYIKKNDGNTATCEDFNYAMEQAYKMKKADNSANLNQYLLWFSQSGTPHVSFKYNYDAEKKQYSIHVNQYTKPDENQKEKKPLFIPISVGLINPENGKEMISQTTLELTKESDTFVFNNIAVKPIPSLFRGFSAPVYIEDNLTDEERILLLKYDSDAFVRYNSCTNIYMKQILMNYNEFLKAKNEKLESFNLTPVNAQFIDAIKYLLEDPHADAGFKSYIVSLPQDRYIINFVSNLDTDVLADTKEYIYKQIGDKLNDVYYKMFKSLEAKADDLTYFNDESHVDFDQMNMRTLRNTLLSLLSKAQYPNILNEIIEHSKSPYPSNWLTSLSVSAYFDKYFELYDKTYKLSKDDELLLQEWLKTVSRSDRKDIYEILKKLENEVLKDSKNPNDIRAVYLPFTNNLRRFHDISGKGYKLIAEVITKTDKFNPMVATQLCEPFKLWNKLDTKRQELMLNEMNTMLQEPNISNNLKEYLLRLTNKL
# [4] = biological target: T3, Leucine aminopeptidase (Plasmodium falciparum 3D7, UniProt Q8IL11); test: P. falciparum M17LAP inhibitors, primary screen, biochemical, fluorogenic H-Leu-NHMec substrate, 1536-well (AID 1619); assay type: functional
# T3 sequence (Q8IL11 whole entry): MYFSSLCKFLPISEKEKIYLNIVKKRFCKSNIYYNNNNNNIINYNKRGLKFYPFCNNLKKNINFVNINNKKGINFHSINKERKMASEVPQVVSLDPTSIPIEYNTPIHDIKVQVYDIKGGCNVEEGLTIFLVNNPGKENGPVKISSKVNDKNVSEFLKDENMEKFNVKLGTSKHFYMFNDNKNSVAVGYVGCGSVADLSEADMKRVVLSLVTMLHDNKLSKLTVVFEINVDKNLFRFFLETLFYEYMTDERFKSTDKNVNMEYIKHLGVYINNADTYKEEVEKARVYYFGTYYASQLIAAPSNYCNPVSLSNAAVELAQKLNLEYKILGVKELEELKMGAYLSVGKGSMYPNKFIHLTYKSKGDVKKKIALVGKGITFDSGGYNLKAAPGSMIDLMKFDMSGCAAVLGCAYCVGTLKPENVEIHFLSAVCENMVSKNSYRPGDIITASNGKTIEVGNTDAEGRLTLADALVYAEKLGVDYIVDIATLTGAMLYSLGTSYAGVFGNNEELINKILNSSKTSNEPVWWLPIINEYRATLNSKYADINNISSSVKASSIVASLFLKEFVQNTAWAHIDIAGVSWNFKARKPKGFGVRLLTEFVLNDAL
# [5] = tested on: BJ; test: cells; assay type: functional, cell-based; settings: Homo sapiens
# [6] = biological target: T4, Replicative DNA helicase DnaB (Mycobacterium tuberculosis, UniProt P9WMR3); test: DnaB intein splicing inhibitors, dose response, biochemical, cell-free fluorescence (AID 449749); assay type: functional
# T4 sequence (P9WMR3 whole entry): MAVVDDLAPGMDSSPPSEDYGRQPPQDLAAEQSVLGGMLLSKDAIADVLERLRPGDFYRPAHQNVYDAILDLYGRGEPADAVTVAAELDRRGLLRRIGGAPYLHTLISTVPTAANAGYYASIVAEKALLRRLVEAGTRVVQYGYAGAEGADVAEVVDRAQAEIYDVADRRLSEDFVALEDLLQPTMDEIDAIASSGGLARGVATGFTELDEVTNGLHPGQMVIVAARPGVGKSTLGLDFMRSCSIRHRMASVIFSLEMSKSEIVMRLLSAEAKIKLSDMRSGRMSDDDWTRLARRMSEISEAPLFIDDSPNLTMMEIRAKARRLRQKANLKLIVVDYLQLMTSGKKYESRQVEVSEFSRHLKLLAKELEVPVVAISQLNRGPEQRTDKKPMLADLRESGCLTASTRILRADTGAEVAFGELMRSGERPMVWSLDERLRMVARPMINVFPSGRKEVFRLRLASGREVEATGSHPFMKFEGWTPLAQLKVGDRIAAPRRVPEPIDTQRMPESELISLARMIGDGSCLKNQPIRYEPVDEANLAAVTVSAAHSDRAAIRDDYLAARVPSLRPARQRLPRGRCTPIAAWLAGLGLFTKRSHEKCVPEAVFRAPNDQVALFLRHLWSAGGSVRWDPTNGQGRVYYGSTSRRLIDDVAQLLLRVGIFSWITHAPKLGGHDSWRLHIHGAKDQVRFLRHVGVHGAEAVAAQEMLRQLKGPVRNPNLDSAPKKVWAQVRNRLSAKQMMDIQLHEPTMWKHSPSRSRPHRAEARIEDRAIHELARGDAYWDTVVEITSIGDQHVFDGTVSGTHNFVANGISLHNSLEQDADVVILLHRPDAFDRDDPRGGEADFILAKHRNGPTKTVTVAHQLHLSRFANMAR
# [7] = tested on: BJ; test: cytotoxicity toward BJ-TERT-LT-ST fibroblasts, dose response, cell-based, RAS-independent, luminescence (AID 1935); assay type: functional; settings: Homo sapiens;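 also: BJ fibroblasts immortalized with TERT plus LT and ST oncogenes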
# [8] = biological target: T5, Protein RecA (Mycobacterium tuberculosis, UniProt P9WHJ3); test: Fluorescence Cell-Free Homogeneous Dose Retest to Identify Inhibitors of RecA-Intein Splicing Activity. [Related pubchem assays (depositor defined):AID2097, AID2223, AID489010, AID492950]; assay type: functional
# T5 sequence (P9WHJ3 whole entry): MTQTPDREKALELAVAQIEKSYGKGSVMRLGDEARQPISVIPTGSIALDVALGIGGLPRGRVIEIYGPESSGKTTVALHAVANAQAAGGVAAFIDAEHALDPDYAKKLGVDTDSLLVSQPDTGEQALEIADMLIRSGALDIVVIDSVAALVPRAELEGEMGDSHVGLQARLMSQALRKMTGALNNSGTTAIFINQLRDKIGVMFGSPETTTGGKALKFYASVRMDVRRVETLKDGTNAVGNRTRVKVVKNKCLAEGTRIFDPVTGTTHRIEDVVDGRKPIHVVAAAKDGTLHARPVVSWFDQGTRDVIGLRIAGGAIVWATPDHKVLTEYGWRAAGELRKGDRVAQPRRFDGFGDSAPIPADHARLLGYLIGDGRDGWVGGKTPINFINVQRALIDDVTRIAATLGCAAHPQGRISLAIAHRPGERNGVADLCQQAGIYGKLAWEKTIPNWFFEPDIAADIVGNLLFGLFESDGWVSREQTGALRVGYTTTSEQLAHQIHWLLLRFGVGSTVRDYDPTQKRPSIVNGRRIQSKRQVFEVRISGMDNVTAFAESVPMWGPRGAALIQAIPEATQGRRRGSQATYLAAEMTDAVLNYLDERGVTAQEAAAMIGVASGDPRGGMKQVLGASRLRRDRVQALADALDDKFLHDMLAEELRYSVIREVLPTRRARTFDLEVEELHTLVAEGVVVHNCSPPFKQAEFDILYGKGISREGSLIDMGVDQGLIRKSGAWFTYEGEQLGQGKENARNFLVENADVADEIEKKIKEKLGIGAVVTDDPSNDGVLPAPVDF
# [9] = cytotoxicity toward DRD oncogenic fibroblasts, dose response, cell-based, non-viral oncogenic, luminescence (AID 1934); assay type: functional; settings: Homo sapiens
# [10] = tested on: BJ; test: cytotoxicity toward BJ-TERT fibroblasts, dose response, cell-based, RAS-independent, luminescence (AID 1933); assay type: functional; settings: Homo sapiens
structure (smiles),measurement,setting,value
COc1ccc(OC)c(NCc2cnc3ccccc3c2)c1,IC50,[1],> 100 µM (inactive)
same,IC50,[2],> 100 µM (not active)
CCc1nnc(NC(=O)CSc2nnc(-c3ccc(NS(=O)(=O)c4ccccc4)cc3)o2)s1,IC50,[3],59.8 µM (active)
same,IC50,[4],< 1 µM (active)
O=C(CCl)Nc1c(C(=O)Nc2ccc3c(c2)OCCO3)oc2ccccc12,EC50,[5],29.4 µM (active)
same,AC50,[6],7.89 µM (active)
same,EC50,[7],> 150 µM (inconclusive)
same,EC50,[8],1.06 µM (active)
same,EC50,[9],19 µM (active)
same,EC50,[10],3.66 µM (active)
